The molecules below were run on IL-1β production in PMA-differentiated THP-1 cells (assay: IL-1β production in PMA-differentiated THP-1 cells stimulated with gramicidin (hTHP-1 assay, 2% fetal bovine serum; Procedures 1-3)). Conditions: Homo sapiens, THP-1, hTHP-1 assay containing 2% fetal bovine serum, Table B2, class symbols; read-out: IC50.
Format: cell-based, human
Outline: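 IL-1β released into supernatants was read by HTRF after 2 h gramicidin (5 μM) challenge. Before challenge, compounds (3-fold dilutions, top 100 μM, 0.37% DMSO) were given 1 h on THP-1 cells differentiated with PMA (20 ng/ml, 16-18 h) and held in 2% FBS medium.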
Molecule `NS(=O)(=NC(=O)Nc1c2c(cc3c1CCC3)CCC2)c1cnn2c1OC[C@H](O)C2` (stereo partly drawn) [Example 441, (6R)-N′-((1,2,3,5,6,7-hexahydro-s-indacen-4-yl)carbamoyl)-6-hydroxy-6,7-dihydro-5H-pyrazolo[5,1-b][1,3]oxazine-3-sulfonimidamide] has an IC50 of 200 to 1000 nM.
For `CC(C)n1nc(S(N)(=O)=NC(=O)Nc2c3c(c(C#N)c4c2CCC4)CCC3)cc1CO` (stereo not drawn) [Example 442, N′-((8-cyano-1,2,3,5,6,7-hexahydro-s-indacen-4-yl)carbamoyl)-5-(hydroxymethyl)-1-isopropyl-1H-pyrazole-3-sulfonimidamide], the IC50 was 200 to 1000 nM.
`NS(=O)(=NC(=O)Nc1c2c(cc3c1CCC3)CCC2)c1ccc(C2CCN2)cc1` (stereo not drawn) [Example 444, 4-(Azetidin-2-yl)-N′-((1,2,3,5,6,7-hexahydro-s-indacen-4-yl)carbamoyl)benzenesulfonimidamide] gave an IC50 of 1000 to 5000 nM.
`CN[C@H]1COc2c(S(N)(=O)=NC(=O)Nc3c4c(cc5c3CCC5)CCC4)cnn2C1` (stereo partly drawn) [Example 445, (6R)-N′-((1,2,3,5,6,7-hexahydro-s-indacen-4-yl)carbamoyl)-6-(methylamino)-6,7-dihydro-5H-pyrazolo[5,1-b][3]oxazine-3-sulfonimidamide] gave an IC50 of 40 to 200 nM.
`CN(C)Cc1ccc(S(N)(=O)=NC(=O)Nc2c3c(cc4c2CC4)CCC3)cc1` (stereo not drawn) [Example 446, 4-((Dimethylamino)methyl)-N′-(2,4,5,6-tetrahydro-1H-cyclobuta[f]inden-3-ylcarbamoyl)benzenesulfonimidamide] showed an IC50 of 200 to 1000 nM.
With `CNCc1ccc(S(N)(=O)=NC(=O)Nc2c3c(cc4c2CC4)CCC3)cc1` (stereo not drawn) [Example 448, 4-((Methylamino)methyl)-N′-((2,4,5,6-tetrahydro-1H-cyclobuta[f]inden-3-yl)carbamoyl)benzenesulfonimidamide] the IC50 was 1000 to 5000 nM.
`CN(C)Cc1ccc(S(N)(=O)=NC(=O)Nc2c3c(cc4c2CC4)CC3)cc1` (stereo not drawn) [Example 449, 4-((Dimethylamino)methyl)-N′-(tricyclo[6.2.0.03,6]deca-1,3(6),7-trien-2-ylcarbamoyl)benzenesulfonimidamide] showed an IC50 of 1000 to 5000 nM.
Work on `CC(C)(O)c1ncc(S(N)(=O)=NC(=O)Nc2c3c(c(Cl)c4c2CCC4)CCC3)s1` (stereo not drawn) [Example 450, N′-((8-chloro-1,2,3,5,6,7-hexahydro-s-indacen-4-yl)carbamoyl)-2-(2-hydroxypropan-2-yl)thiazole-5-sulfonimidamide] yielded an IC50 of 40 to 200 nM.
For `CNC(C)(C)c1ccc(S(N)(=O)=NC(=O)Nc2c3c(cc4c2CCC4)CCC3)c(F)c1` (stereo not drawn) [Example 451, 2-Fluoro-N′-(1,2,3,5,6,7-hexahydros-indacen-4-ylcarbamoyl)-4-(2-(methylamino)propan-2-yl)benzenesulfonimidamideonimidamide], the IC50 was 200 to 1000 nM.
`C=CCc1c2c(c(NC(=O)N=S(N)(=O)c3cc(C(C)(C)O)n(-c4ccccc4)n3)c3c1CCC3)CCC2` (stereo not drawn) [Example 458, N′-((8-allyl-1,2,3,5,6,7-hexahydro-s-indacen-4-yl)carbamoyl)-5-(2-hydroxypropan-2-yl)-1-phenyl-1H-pyrazole-3-sulfonimidamide] gave an IC50 of 1000 to 5000 nM.
For `C/C=C/c1c2c(c(NC(=O)N=S(N)(=O)c3cc(C(C)(C)O)n(-c4ccccc4)n3)c3c1CCC3)CCC2` (stereo not drawn) [Example 459, (E)-5-(2-hydroxypropan-2-yl)-1-phenyl-N′-((8-(prop-1-en-1-yl)-1,2,3,5,6,7-hexahydro-s-indacen-4-yl)carbamoyl)-1H-pyrazole-3-sulfonimidamide], the IC50 was 1000 to 5000 nM.
Work on `NS(=O)(=NC(=O)Nc1c2c(cc3c1CCC3)CCC2)c1cnc(C(O)(CO)CO)s1` (stereo not drawn) [Example 460, N′-((1,2,3,5,6,7-hexahydro-s-indacen-4-yl)carbamoyl)-2-(1,2,3-trihydroxypropan-2-yl) thiazole-5-sulfonimidamide] yielded an IC50 of 40 to 200 nM.
For `CC(C)(O)c1cncc(S(N)(=O)=NC(=O)Nc2c3c(c(C#N)c4c2CCC4)CCC3)c1` (stereo not drawn) [Example 461, N′-((8-cyano-1,2,3,5,6,7-hexahydro-s-indacen-4-yl)carbamoyl)-5-(2-hydroxypropan-2-yl)pyridine-3-sulfomidamide], the IC50 was 200 to 1000 nM.
`NS(=O)(=NC(=O)Nc1c2c(cc3c1CCC3)CCC2)c1ccc(CN2CCC2)cc1F` (stereo not drawn) [Example 462, 4-(azetidin-1-ylmethyl)-2-fluoro-N′-((1,2,3,5,6,7-hexahydro-s-indacen-4-yl)carbamoyl)benzenesulfonimidamide] gave an IC50 of 1000 to 5000 nM.
Molecule `NS(=O)(=NC(=O)Nc1c2c(cc3c1CC3)CCC2)c1ccc(CN2CCC2)cc1F` (stereo not drawn) [Example 463, 4-(azetidin-1-ylmethyl)-2-fluoro-N′-((2,4,5,6-tetrahydro-1H-cyclobuta[f]inden-3-yl)carbamoyl)benzenesulfonimidamide] has an IC50 of 1000 to 5000 nM.
In the case of `CC(C)(O)c1ccc(S(N)(=O)=NC(=O)Nc2cc3c(c4c2CCC4)CCC3)cn1` (stereo not drawn) [Example 464, N′-((1,2,3,6,7,8-hexahydro-as-indacen-4-yl)carbamoyl)-6-(2-hydroxypropan-2-yl)pyridine-3-sulfonimidamide], the IC50 is reported as 1000 to 5000 nM.
`Cc1c(C2CC2)cc2c(c1NC(=O)N=S(N)(=O)c1cc(C(C)(C)O)cs1)CCC2` (stereo not drawn) [Example 465, N′-((6-cyclopropyl-5-methyl-2,3-dihydro-1H-inden-4-yl)carbamoyl)-4-(2-hydroxypropan-2-yl)thiophene-2-sulfonimidamide] was tested, and the IC50 was 40 to 200 nM.
Molecule `CC(C)(O)c1csc(S(N)(=O)=NC(=O)Nc2c3c(cc4c2C(=O)CC4)CCC3)c1` (stereo not drawn) [Example 466, 4-(2-Hydroxypropan-2-yl)-N′-((3-oxo-1,2,3,5,6,7-hexahydro-s-indacen-4-yl)carbamoyl)thiophene-2-sulfonimidamide] has an IC50 of 200 to 1000 nM.

Same assay, conditions: hTHP-1 assay containing 2% fetal bovine serum, Table B2, class symbols; read-out: IC50
Molecule `CC(O)(CO)c1cc(F)c(S(N)(=O)=NC(=O)Nc2c3c(c(C#N)c4c2CCC4)CCC3)s1` (stereo not drawn) [Example 443, N′-((8-cyano-1,2,3,5,6,7-hexahydro-s-indacen-4-yl)carbamoyl)-5-(1,2-dihydroxypropan-2-yl)-3-fluorothiophene-2-sulfonimidamide] has an IC50 of 40 to 200 nM.
With `NS(=O)(=NC(=O)Nc1c2c(cc3c1CCC3)CCC2)c1ccc(C2CCCN2)cc1` (stereo not drawn) [Example 447, N′-((1,2,3,5,6,7-hexahydro-s-indacen-4-yl)carbamoyl)-4-(pyrrolidin-2-yl)benzenesulfonimidamide] the IC50 was 1000 to 5000 nM.
Work on `COCc1nc(C(C)(C)O)sc1S(N)(=O)=NC(=O)Nc1c2c(c(C#N)c3c1CCC3)CCC2` (stereo not drawn) [Example 454, N′-((8-cyano-1,2,3,5,6,7-hexahydro-s-indacen-4-yl)carbamoyl)-2-(2-hydroxypropan-2-yl)-4-(methoxymethyl)thiazole-5-sulfonimidamide] yielded an IC50 of 200 to 1000 nM.
In the case of `CC(C)(O)c1cnc(S(N)(=O)=NC(=O)Nc2c3c(cc4c2CCC4=O)CCC3)s1` (stereo not drawn) [Example 455, 5-(2-Hydroxypropan-2-yl)-N′-((1-oxo-1,2,3,5,6,7-hexahydro-s-indacen-4-yl)carbamoyl)thiazole-2-sulfonimidamide], the IC50 is reported as 1000 to 5000 nM.
Molecule `CC(C)(O)c1ccnc(S(N)(=O)=NC(=O)Nc2c3c(c(C#N)c4c2CCC4)CCC3)c1` (stereo not drawn) [Example 456, N′-((8-cyano-1,2,3,5,6,7-hexahydro-s-indacen-4-yl)carbamoyl)-4-(2-hydroxypropan-2-yl)pyridine-2-sulfonimidamide] has an IC50 of 200 to 1000 nM.
With `COc1ccc(Cn2nc(S(N)(=O)=NC(=O)Nc3c4c(cc5c3CCC5)CCC4)cc2C(C)(C)O)cc1` (stereo not drawn) [Example 457, N′-((1,2,3,5,6,7-hexahydro-s-indacen-4-yl)carbamoyl)-5-(2-hydroxypropan-2-yl)-1-(4-methoxybenzyl)-1H-pyrazole-3-sulfonimidamide] the IC50 was 200 to 1000 nM.
